This note sets out measurements from ChEMBL document CHEMBL4330124, “Discovery of an Orally Available Janus Kinase 3 Selective Covalent Inhibitor” (J Med Chem, 2019).

Calls of active or inactive are those of the source. No cut-off for these calls is given here.

For series [1], the species on record is Homo sapiens. Put plainly: Inhibition of IL10/JAK/STAT3 signaling in human PBMC assessed as reduction in LPS-induced IL6 production at 100 nM preincubated for 2 hrs followed by LPS stimulation measured after 24 hrs by ELISA.
The species named for series [2] is Homo sapiens. Description: Inhibition of IL10/JAK/STAT3 signaling in human PBMC assessed as reduction in LPS-induced TNFalpha production at 100 nM preincubated for 2 hrs followed by LPS stimulation measured after 24 hrs by ELISA.
A further series concerns PBMC. Put plainly: Effect on IL6-induced MCP1 production in human PBMC at 100 to 6000 nM preincubated for 2 hrs followed by IL6 stimulation measured after 24 hrs by ELISA. It is filed as functional, cell-based.
In series [3] the target is Protein kinase C gamma type (Homo sapiens) (UniProt P05129). Description: Inhibition of PKCgamma (unknown origin) at 1 uM after 60 mins by Z-LYTE assay relative to control.
Series [4] addresses Tyrosine-protein kinase BTK (Homo sapiens) (UniProt Q06187). Put plainly: Inhibition of BTK (unknown origin) at 1 uM after 60 mins by Z-LYTE assay.
The target of series [5] is Protein kinase C alpha type (Homo sapiens) (UniProt P17252). Put plainly: Inhibition of PKCalpha (unknown origin) at 1 uM after 60 mins by Z-LYTE assay relative to control.
In series [6] the target is Glycogen synthase kinase-3 beta (Homo sapiens) (UniProt P49841). Description: Inhibition of GSK3beta (unknown origin) at 1 uM after 60 mins by Z-LYTE assay relative to control.
Glycogen synthase kinase-3 beta (Homo sapiens), sequence (P49841 whole entry, looked up): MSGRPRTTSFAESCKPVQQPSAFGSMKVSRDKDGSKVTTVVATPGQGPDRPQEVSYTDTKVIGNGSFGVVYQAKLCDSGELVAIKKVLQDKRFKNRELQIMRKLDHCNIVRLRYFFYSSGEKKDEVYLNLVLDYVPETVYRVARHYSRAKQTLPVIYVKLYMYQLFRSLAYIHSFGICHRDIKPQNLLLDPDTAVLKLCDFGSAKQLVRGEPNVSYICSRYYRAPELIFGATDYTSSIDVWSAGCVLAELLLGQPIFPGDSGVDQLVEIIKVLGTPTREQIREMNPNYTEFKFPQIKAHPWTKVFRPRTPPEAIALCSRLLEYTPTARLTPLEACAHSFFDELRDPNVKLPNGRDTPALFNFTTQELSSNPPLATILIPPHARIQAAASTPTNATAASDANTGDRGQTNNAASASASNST
Series [7] deals with Epidermal growth factor receptor (Homo sapiens) (UniProt P00533). Put plainly: Inhibition of EGFR (unknown origin) at 1 uM after 60 mins by Z-LYTE assay.
Epidermal growth factor receptor (Homo sapiens), sequence (P00533 whole entry): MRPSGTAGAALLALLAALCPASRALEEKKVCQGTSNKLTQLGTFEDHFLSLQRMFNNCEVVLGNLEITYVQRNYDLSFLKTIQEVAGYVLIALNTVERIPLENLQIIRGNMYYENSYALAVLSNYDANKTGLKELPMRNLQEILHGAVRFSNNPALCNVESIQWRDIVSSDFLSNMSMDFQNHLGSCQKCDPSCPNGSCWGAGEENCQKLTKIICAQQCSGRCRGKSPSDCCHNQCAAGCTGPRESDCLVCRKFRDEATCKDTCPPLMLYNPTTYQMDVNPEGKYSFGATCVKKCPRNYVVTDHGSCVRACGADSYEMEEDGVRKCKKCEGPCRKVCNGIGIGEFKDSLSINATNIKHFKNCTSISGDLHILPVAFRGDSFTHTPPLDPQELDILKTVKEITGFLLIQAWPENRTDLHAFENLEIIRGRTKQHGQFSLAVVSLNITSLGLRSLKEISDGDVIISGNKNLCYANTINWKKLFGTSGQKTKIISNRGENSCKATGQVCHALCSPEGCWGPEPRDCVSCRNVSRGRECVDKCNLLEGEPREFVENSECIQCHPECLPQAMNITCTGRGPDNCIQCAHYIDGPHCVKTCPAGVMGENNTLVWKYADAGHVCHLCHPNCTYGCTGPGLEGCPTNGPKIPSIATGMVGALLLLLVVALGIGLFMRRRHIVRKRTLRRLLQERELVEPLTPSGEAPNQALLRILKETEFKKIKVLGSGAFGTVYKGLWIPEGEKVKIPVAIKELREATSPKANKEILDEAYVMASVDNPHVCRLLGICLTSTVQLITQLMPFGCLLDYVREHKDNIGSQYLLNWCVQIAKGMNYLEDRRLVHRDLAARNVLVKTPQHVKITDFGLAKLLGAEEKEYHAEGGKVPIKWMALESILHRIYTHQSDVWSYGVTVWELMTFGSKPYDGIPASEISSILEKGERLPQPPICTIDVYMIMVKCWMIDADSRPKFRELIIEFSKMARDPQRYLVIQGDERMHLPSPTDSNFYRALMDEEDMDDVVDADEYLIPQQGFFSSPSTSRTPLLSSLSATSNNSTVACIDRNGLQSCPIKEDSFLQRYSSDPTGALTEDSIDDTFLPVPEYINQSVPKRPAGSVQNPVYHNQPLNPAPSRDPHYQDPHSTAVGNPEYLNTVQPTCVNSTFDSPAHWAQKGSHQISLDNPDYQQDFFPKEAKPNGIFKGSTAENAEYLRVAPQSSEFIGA
Series [8] can be described thus: Clearance in ICR mouse at 5 mg/kg, po via gavage by LC/MS/MS analysis. Conditions: in vivo. The format is ADME, organism-based.
The target in series [9] is T1, Tyrosine-protein kinase ITK/TSK (Homo sapiens) (UniProt Q08881).
T1 sequence (whole entry): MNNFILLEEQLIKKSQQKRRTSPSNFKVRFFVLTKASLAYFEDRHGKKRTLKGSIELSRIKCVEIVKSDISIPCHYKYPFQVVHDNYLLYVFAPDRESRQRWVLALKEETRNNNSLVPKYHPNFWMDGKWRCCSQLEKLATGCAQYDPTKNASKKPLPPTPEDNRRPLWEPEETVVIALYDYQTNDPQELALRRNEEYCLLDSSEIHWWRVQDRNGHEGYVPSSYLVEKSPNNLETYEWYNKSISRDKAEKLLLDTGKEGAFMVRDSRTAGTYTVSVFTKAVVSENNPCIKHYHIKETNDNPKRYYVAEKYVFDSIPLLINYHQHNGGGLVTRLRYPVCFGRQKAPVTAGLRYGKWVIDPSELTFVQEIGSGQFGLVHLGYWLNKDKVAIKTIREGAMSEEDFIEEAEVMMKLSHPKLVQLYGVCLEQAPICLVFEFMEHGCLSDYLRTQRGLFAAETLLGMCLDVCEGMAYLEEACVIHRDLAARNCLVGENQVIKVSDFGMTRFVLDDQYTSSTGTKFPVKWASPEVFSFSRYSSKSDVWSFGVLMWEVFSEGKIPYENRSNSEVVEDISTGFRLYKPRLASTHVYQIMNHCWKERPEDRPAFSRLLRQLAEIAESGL
Put plainly: Inhibition of ITK (unknown origin) at 1 uM after 60 mins by Z-LYTE assay.

Tyrosine-protein kinase BTK (Homo sapiens), sequence (Q06187 whole entry): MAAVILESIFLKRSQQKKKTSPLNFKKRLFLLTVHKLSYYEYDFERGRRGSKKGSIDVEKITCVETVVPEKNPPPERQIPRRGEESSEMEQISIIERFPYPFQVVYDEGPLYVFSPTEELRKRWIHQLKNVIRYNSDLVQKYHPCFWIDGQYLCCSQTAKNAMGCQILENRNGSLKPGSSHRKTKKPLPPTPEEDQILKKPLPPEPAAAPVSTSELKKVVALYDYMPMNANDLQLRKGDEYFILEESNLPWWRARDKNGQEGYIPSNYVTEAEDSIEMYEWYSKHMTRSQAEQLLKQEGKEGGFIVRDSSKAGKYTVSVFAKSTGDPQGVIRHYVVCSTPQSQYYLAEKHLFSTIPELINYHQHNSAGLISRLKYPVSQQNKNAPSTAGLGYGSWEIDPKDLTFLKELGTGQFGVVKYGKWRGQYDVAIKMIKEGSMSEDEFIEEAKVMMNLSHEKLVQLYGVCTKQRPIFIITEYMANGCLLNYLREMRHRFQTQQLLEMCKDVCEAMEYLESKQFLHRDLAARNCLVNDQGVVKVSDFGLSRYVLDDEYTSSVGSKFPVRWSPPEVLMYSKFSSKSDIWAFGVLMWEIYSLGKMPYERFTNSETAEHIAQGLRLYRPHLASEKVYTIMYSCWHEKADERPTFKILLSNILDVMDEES

As to `CC(C)(O)C(=O)N1CCN(c2ccc(C(F)(F)F)c(C3=C(c4c[nH]c5ccccc45)C(=O)NC3=O)c2)CC1`, the inhibition result in the series filed under Homo sapiens [1] and in the series filed under Homo sapiens [2] was “Active” in each case. Further, the outcome in the series with PBMC was inactive.

Take `C=CC(=O)N1CCN(c2ccc([N+](=O)[O-])c(C3=C(c4c[nH]c5ccccc45)C(=O)NC3=O)c2)CC1`: the inhibition in [3], in [5] and in [6] was above 80% in each case. Also, the inhibition entry (in [4]; in the series filed under Homo sapiens [1]; in the series listed under Homo sapiens [2]; in series [7]; in series [9]) was “Active” each time. Also, in the series on PBMC, the outcome was inactive. The compound also displayed a CL/F in [8] of 138 mL/min/kg.

As for `C=CC(=O)N1C[C@H](Nc2ncnc3[nH]ccc23)CC[C@@H]1C`, the inhibition entry in the series listed under Homo sapiens [1] and in the series listed under Homo sapiens [2] was “Active” in each case. The outcome in the series on PBMC was inactive.
